One block for each compound: values may come before it.
Key:
BACE1 [1] = target: T1, BACE1 (Homo sapiens (Human), UniProt P56817); assay: In vitro enzymatic BACE1 FRET assay; format: biochemical; settings: pH 4.5, 1 h pre-incubation, read-out: BACE1 Enzyme IC50
Method: (§1) In Vitro Enzymatic BACE1 and BACE2 FRET (Fluorescence Resonance Energy Transfer) Assays
(§2) The cDNAs for both human recombinant BACE1 and 2 with C-terminal 6-His Tags were cloned into transient protein expression vectors, which were subsequently transfected into mammalian cell lines. These recombinant proteins were further purified using Ni-NTA affinity chromatography (Qiagen). The assay buffer used in these screens was 0.05 M acetate, pH 4.5, 8% DMSO final, 100 μM genapol (which is a nonionic detergent, below its Critical Micelle Concentration). The β-secretase enzyme (0.02 nM for BACE1 and 0.64 nM for BACE2), which was pre-incubated for one hour with the test compound, typically in about luL of DMSO according to a serial dilution, was added thereto. The assay was effectively started by the addition of FRET substrate (50 nM) and the combination was incubated for one hour. The FRET assay was terminated by the addition of tris buffer, which raised the pH to neutrality, and the fluorescence was determined. The FRET substrate was a peptide with commercially available fluorophore and quencher, on opposite sides of the BACE cleavage site. The specific FRET substrate used in this assay was made by Amgen in-house. Commercially available FRET substrates, for example, the FRET substrate offered with the BACE1 FRET Assay Kit sold by ThermoFisher Scientific (Catalog Number P2985), may be used in this assay with the appropriate modifications, which are within the purview of the ability of a person with ordinary skill in the art. Proteolytic cleavage of the FRET substrate released quenching of fluorescence (excitation 488 nm and emission 590 nm).
Target sequence in this assay (P56817 46-501): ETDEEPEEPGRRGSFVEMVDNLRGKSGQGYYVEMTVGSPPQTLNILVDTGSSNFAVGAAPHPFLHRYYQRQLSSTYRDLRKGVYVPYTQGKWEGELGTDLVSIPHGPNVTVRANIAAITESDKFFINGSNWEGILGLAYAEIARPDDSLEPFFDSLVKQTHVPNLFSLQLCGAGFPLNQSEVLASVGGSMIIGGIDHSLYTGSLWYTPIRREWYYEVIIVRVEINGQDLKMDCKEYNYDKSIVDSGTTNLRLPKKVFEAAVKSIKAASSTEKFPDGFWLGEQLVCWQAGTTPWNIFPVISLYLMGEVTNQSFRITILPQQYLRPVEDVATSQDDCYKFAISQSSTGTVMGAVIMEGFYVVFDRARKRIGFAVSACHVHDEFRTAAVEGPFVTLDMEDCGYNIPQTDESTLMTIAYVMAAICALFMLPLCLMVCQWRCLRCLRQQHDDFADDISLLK

BACE1 [2] = target: T1, BACE1; assay: In vitro BACE1 cell-based assay (Aβ40 in conditioned medium, HTRF); settings: Aβ40 in conditioned medium of cells stably expressing APP, 24 h
Method: In Vitro BACE1 Cell-Based Assay
The cell-based assay measures inhibition or reduction of Aβ40 in conditioned medium of test compound treated cells expressing amyloid precursor protein. Cells stably expressing Amyloid Precursor Protein (APP) were plated at a density of 45K cells/well in 384 well plates (Corning/BioCoat 354663). The test compounds were then added to cells in 22-point dose response concentrations with the starting concentration being 62.5 μM. The compounds were diluted from stock solutions in DMSO and the final DMSO concentration of the test compounds on cells was 0.625%. The cells were cultivated overnight at 37° C. and 5% CO2 in DMEM supplemented with 10% FBS. After 24 h of incubation with the test compounds, the conditioned media was collected and the Aβ40 levels were determined using HTRF (Homogeneous Time Resolved Fluorescence). The IC50 of the compound was calculated from the percent of control or percent inhibition of Aβ 40 as a function of the concentration of the test compound.
The HTRF to detect Aβ40 was performed in 384 well plates (Costar 3658). The antibody pair that were used to detect Aβ 40 from cell supernatants were ConfAb40 antibody (Amgen in-house) and biotinylated 6E10 (BIOLEGEND). As an alternative to ConfAb40, a commercially available antibody, Anti-beta Amyloid 1-40 antibody [BDI350] from Abcam, Cambridge, Mass. 02139-1517 (Product code: ab20068), may be used in this assay. The concentrations were 0.35 μg/mL of ConfAb40 antibody and 1.33 μg/mL of 6E10-biotinylated antibody, as well as 4.5 μg/mL of Streptavidin Allophycocyanin Conjugate (ThermoFisher Scientific) in HTRF Buffer (1M Hepes pH 7.5, 1M NaCL, 1% BSA, 0.5% Tween 20).
The conditioned media was incubated with above antibodies and Streptavidin Allophycocyanin Conjugate for 30-60 minutes at 23° C. The final readout was performed on Envision from PerkinElmer.
Target sequence in this assay (P56817 46-501, species assumed): as the sequence (P56817 46-501) above

human recombinant BACE2 = human recombinant BACE2 (Homo sapiens (Human), UniProt Q9Y5Z0); assay: In vitro enzymatic BACE2 FRET assay; format: biochemical; settings: pH 4.5, 1 h pre-incubation, read-out: BACE2 Enzyme IC50
Chain of human recombinant BACE2 (Q9Y5Z0 63-518): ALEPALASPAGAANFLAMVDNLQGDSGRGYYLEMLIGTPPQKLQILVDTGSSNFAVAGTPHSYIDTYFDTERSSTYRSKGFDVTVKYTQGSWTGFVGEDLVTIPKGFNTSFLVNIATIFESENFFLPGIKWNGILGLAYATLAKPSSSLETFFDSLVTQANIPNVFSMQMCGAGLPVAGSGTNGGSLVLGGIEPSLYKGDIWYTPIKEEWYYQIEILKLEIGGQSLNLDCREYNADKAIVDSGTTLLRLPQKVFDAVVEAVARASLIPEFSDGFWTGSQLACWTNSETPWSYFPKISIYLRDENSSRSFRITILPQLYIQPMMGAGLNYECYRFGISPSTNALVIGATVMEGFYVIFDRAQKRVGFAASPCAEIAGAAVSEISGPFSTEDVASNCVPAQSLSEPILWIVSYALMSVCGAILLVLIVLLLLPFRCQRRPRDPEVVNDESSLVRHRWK
Method: as §1, §2

Recombinant CatD = Recombinant CatD (Homo sapiens (Human), UniProt P07339); assay: In vitro enzymatic Cathepsin D (CatD) FRET assay; format: biochemical; settings: pH 3.5, 1 h pre-incubation, read-out: Cat D Enzyme IC50
Chain of Recombinant CatD (P07339 65-412): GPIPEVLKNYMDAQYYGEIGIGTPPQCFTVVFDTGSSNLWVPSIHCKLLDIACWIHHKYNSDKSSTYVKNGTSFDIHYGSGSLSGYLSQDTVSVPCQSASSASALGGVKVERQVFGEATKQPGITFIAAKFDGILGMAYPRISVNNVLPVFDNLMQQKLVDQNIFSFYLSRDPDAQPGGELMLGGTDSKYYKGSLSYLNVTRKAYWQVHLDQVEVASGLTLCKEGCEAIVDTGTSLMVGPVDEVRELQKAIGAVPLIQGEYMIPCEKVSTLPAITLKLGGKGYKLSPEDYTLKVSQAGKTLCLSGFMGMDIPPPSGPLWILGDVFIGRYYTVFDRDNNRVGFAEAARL
Method: In Vitro Enzymatic Cathepsin D (CatD) FRET Assay Recombinant CatD was expressed in CHO cells. The assay buffer for CatD was 0.05 M citrate pH 3.5, 10% DMSO final, 5 mM CHAPS. The CatD enzyme (9 nM) was pre-incubated for one hour with inhibitors, typically in about luL of DMSO according to a serial dilution, is added thereto. The assays was effectively started by the addition of different FRET substrates (20 nM for CatD) and the combination was incubated for one hour. The FRET assay was terminated with by addition of tris buffer, which raises the pH to neutrality, and the fluorescence was determined. The FRET substrate was a peptide with commercially available fluorophore and quencher, on opposite sides of the CatD cleavage site. The CatD substrate peptide sequence was based on sequence #1 of Table 1 from Gulnik et al., FEBS Lett. 413(2):379-384 (1997). Proteolytic cleavage of the FRET substrate released quenching of fluorescence (CatD excitation 500 nm and emission 580 nm). The in vitro CatD FRET assay data for each of the Examples is provided in Table 2, conducted by the first procedure described above. […] Thus, with this surprising selectivity profile, the compounds provided herein are believed to minimize, reduce or completely eliminate any risk of retinal atrophy and abnormal development of the eye and of the retinal pigmented epithelium as it relates to the normal function and activity of CatD.

[3] = test system: Aβ peptide levels in the CSF and plasma; settings: nonhuman primates; cited from earlier work
[4] = repeated doses up to 200 mg, phase I clinical trial; cited from earlier work
Aβ peptide in CSF = settings: cited from earlier work
[5] = in vivo; cited from earlier work
[6] = test system: pigment epithelium of the rat's eye; settings: higher compound dose given for three months; cited from earlier work
[7] = test system: CSF Aβ peptide concentrations; settings: sustained and dose-dependent manner; cited from earlier work
[8] = phase I clinical trials; cited from earlier work

IC50 (BACE1 [1]): 25 nM
IC50 (BACE1 [2]): 10 nM
IC50 (human recombinant BACE2): 560 nM
IC50 (Recombinant CatD): 68600 nM
SMILES: CNC(=O)[C@]1(C)C[C@@](C)(c2cc(/C=C(\F)c3ccc(C#N)cn3)ccc2F)N=C(N)S1 [Example 116, (4S,6S)-2-amino-4-(5-((Z)-2-(5-cyanopyridin-2-yl)-2-fluorovinyl)-2-fluorophenyl)-N,4,6-trimethyl-5,6-dihydro-4H-1,3-thiazine-6-carboxamide]

SMILES: C[C@H]1OC[C@]2(c3cc(NC(=O)c4cnc(C(F)F)cn4)ccc3F)N=C(N)SC[C@H]12 [Example E2609]
reduction in Aβ peptide levels in the CSF and plasma [3]: significant reduction
clinical safety [4]: did not show clinical significant safety concerns

SMILES: C[C@@]1(c2cc(NC(=O)c3ccc(C#N)cn3)ccc2F)C=CSC(N)=N1 [JNJ-54861911]
reduction of Aβ peptide concentrations (Aβ peptide in CSF; in vivo): dose-dependently reduce Aβ peptide concentrations
Aβ peptide reduction in CSF (Aβ peptide in CSF; oral dose of 95 mg once daily): up to 95%
ability to cross the blood-brain barrier [5]: demonstrated an ability to cross the blood-brain barrier

SMILES: C[C@@]1(c2cc(-c3cncnc3)c(F)cc2F)CCSC(N)=N1 [LY 2811376]
eye toxicity finding [6]: damaged the pigment epithelium of the rat's eye

SMILES: CN1C(=N)N[C@](C)(c2cc(NC(=O)c3ccc(F)cn3)ccc2F)CS1(=O)=O [MK-8931]
CSF Aβ peptide concentrations [7]: significantly reduced
safety profile [8]: excellent safety profile with no immediately noticeable side effects

— patent publication US10889579B2, “Thiazine derivatives as β-secretase inhibitors and methods of use” (AMGEN INC., priority 2016, dated 2021)
